# Measured values taken from ChEMBL document CHEMBL1149500, “Binding of aminoglycosidic antibiotics to the oligonucleotide A-site model and 30S ribosomal subunit: Poisson-Boltzmann model, thermal denaturation, and fluorescence studies” (J Med Chem, 2006).
# Target: Ribosomal RNA A-site
# Assay: Binding affinity to bacterial ribosomal A site RNA oligonucleotide
# Format: nucleic-acid assay
row,SMILES,Kd
1,CN[C@@H]1[C@@H](O)[C@@H](O[C@@H]2[C@@H](O)[C@H](O[C@H]3O[C@H]([C@@H](C)O)[C@@H](O)[C@H](O)[C@H]3N)[C@@H](N)C[C@H]2N)OC[C@]1(C)O [GENETICIN],14.5 µM
2,CN[C@@H]1[C@H](O)[C@@H](O[C@@H]2[C@@H](O)[C@H](O[C@H]3O[C@H](CN)CC[C@H]3N)[C@@H](N)C[C@H]2N)OC[C@]1(C)O [GENTAMICIN C],5.53 µM
3,NC[C@H]1O[C@H](O[C@H]2[C@H](O)[C@@H](O)[C@H](N)C[C@@H]2N)[C@H](N)[C@@H](O)[C@@H]1O [NEAMINE],7.39 µM
4,NC[C@@H]1O[C@H](O[C@H]2[C@@H](O)[C@H](O[C@@H]3[C@@H](O)[C@H](N)C[C@H](N)[C@H]3O[C@H]3O[C@H](CO)[C@@H](O)[C@H](O)[C@H]3N)O[C@@H]2CO)[C@H](N)[C@@H](O)[C@@H]1O [PAROMOMYCIN],0.39 µM
5,NC[C@H]1O[C@H](O[C@H]2[C@H](O[C@@H]3O[C@H](CO)[C@@H](O)[C@H]3O)[C@@H](O)[C@H](N)C[C@@H]2N)[C@H](N)[C@@H](O)[C@@H]1O [RIBOSTAMYCIN],16.4 µM
